Results taken from US12509444B2, “Compounds and methods for CD73 modulation and indications therefor” (Plexxikon Inc., priority 2019, dated 2025).
pIC50: −log10 of the molar value.

What was measured:
human CD73 = biological target: T1, human CD73 (Homo sapiens, UniProt P21589); test: Inhibitor activity against CD73 in cell based assay (CD73 expressing CHO-K1 cells); settings: CHO-K1 cells expressing human CD73, 150 μM AMP, 4 hours of incubation; read-out: CHO-K1 CELL VARIANT: CD73 IC50
T1 construct: expressed in transfected cells
T1 sequence (P21589 27-549): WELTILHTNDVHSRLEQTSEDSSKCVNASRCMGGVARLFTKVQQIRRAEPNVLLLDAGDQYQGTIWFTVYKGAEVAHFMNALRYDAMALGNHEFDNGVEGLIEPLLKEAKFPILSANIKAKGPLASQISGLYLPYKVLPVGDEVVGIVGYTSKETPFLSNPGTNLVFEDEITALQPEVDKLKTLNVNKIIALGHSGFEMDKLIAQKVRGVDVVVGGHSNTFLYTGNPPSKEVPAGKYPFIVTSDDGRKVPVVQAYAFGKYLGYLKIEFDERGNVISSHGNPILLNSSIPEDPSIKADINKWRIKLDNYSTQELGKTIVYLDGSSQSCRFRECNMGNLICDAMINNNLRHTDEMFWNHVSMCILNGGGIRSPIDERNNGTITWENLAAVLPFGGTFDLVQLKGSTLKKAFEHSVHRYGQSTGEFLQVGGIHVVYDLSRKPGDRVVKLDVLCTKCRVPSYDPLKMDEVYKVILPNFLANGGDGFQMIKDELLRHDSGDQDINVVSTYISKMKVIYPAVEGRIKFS
Summary of the method: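 Stably transfected CHO-K1 cells expressing human CD73 (1×10^4/well) incubated 4 h with compound (8-point 1:3 titration, top 10 μM final, 0.2% DMSO) and 150 μM AMP. Residual AMP in supernatant measured by CellTiter-Glo luminescence with 1 μM ATP after 30 min at room temperature; IC50 by nonlinear regression of percent inhibition vs high/low controls.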

[1] = biological target: T2, Human CD73 (amino acid residues 27-549) (Homo sapiens, UniProt P21589); test: CD73 enzymatic assay (luciferase-based indirect assay, CellTiter-Glo); format: biochemical; settings: 0.4 nM CD73, 150 μM AMP, 1 hour at room temperature
T2 construct: Human CD73 (amino acid residues 27-549); His tag (N); made in house; host or cells: E. coli
T2 sequence (P21589 27-549): T1 sequence (P21589 27-549)
Summary of the method: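 His-tagged human CD73 (27-549) from E. coli, 0.4 nM, with 150 μM AMP in 50 mM HEPES pH 7.4, 0.01% Tween 20; 1 h at room temperature. AMP remaining read by CellTiter-Glo 2.0 luminescence with 1 μM final ATP after 30 min. IC50 from nonlinear regression of % inhibition.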

pIC50 (human CD73)	pIC50 [1]	Structure (SMILES)
5.00 to 9.00	5.00 to 9.00	CS(=O)(=O)NC1CCC(NC(=O)O[C@@H]2CCN(c3cn[nH]c(=O)c3Cl)C2)CC1 (stereo partly drawn) [P-0116, (R)-1-(5-chloro-6-oxo-1,6-dihydropyridazin-4-yl)pyrrolidin-3-yl (4-(methylsulfonamido)cyclohexyl)carbamate]
5.00 to 9.00	5.00 to 9.00	O=C(N[C@H]1CC[C@@H](NC2CCOCC2)CC1)O[C@@H]1CCN(c2cn[nH]c(=O)c2Cl)C1 [P-0487, (R)-1-(5-chloro-6-oxo-1,6-dihydropyridazin-4-yl)pyrrolidin-3-yl ((1s,4S)-4-((tetrahydro-2H-pyran-4-yl)amino)cyclohexyl)carbamate]
5.00 to 9.00	5.00 to 9.00	C[C@@H]1CCCC[C@@H]1NC(=O)O[C@@H]1CCN(c2cn[nH]c(=O)c2Cl)C1 [P-0288, (R)-1-(5-chloro-6-oxo-1,6-dihydropyridazin-4-yl)pyrrolidin-3-yl ((1S,2R)-2-methylcyclohexyl)carbamate]
5.00 to 9.00	5.00 to 9.00	O=C(NC1CCCCC1)N[C@@H]1CCN(c2cn[nH]c(=O)c2Cl)C1 [P-0039, (R)-1-(1-(5-chloro-6-oxo-1,6-dihydropyridazin-4-yl)pyrrolidin-3-yl)-3-cyclohexylurea]
5.00 to 9.00	5.00 to 9.00	O=C(NC1CC(CO)(CCl)C1)O[C@@H]1CCN(c2cn[nH]c(=O)c2Cl)C1 (stereo partly drawn) [P-0338, (R)-1-(5-chloro-6-oxo-1,6-dihydropyridazin-4-yl)pyrrolidin-3-yl (3-(chloromethyl)-3-(hydroxymethyl)cyclobutyl) carbamate]
5.00 to 9.00	5.00 to 9.00	O=C(NC1CCC2(CC1)CC2)O[C@@H]1CCN(c2cn[nH]c(=O)c2Cl)C1 [P-0276, (R)-1-(5-chloro-6-oxo-1,6-dihydropyridazin-4-yl)pyrrolidin-3-yl spiro[2.5]octan-6-ylcarbamate]
5.00 to 9.00	5.00 to 9.00	O=C(N[C@H]1CC[C@@H](NC2CC3CCC2C3)CC1)O[C@@H]1CCN(c2cn[nH]c(=O)c2Cl)C1 (stereo partly drawn) [P-0488, (R)-1-(5-chloro-6-oxo-1,6-dihydropyridazin-4-yl)pyrrolidin-3-yl ((1R,4S)-4-(((1S,4R)-bicyclo[2.2.1]heptan-2-yl)amino)cyclohexyl)carbamate]
4.00 to 5.00	5.00 to 9.00	CC(C)C(=O)N[C@H]1CC[C@H](NC(=O)O[C@@H]2CCN(c3cn[nH]c(=O)c3Cl)C2)CC1 [P-0263]
5.00 to 9.00	5.00 to 9.00	O=C(NC1CCC(F)(F)CC1)O[C@@H]1CN(c2cn[nH]c(=O)c2Cl)C[C@H]1F [P-0141, (3R,4R)-1-(5-chloro-6-oxo-1,6-dihydropyridazin-4-yl)-4-fluoropyrrolidin-3-yl (4,4-difluorocyclohexyl)carbamate]
5.00 to 9.00	5.00 to 9.00	C[C@H](O)C(=O)N1CCC(NC(=O)O[C@@H]2CCN(c3cn[nH]c(=O)c3Cl)C2)CC1 [P-0399, (R)-1-(5-chloro-6-oxo-1,6-dihydropyridazin-4-yl)pyrrolidin-3-yl (1-((S)-2-hydroxypropanoyl)piperidin-4-yl)carbamate]
5.00 to 9.00	5.00 to 9.00	O=C(N[C@H]1CC[C@H](NS(=O)(=O)c2ccc(Cl)cc2)CC1)O[C@@H]1CCN(c2cn[nH]c(=O)c2Cl)C1 [P-0292, (R)-1-(5-chloro-6-oxo-1,6-dihydropyridazin-4-yl)pyrrolidin-3-yl ((1r,4R)-4-((4-chlorophenyl)sulfonamido)cyclohexyl)carbamate]
5.00 to 9.00	5.00 to 9.00	O=C(N[C@H]1CC[C@H](C(=O)Nc2ccccc2)CC1)O[C@@H]1CCN(c2cn[nH]c(=O)c2Cl)C1 [P-0194, (R)-1-(5-chloro-6-oxo-1,6-dihydropyridazin-4-yl)pyrrolidin-3-yl ((1r,4R)-4-(phenylcarbamoyl)cyclohexyl) carbamate]
5.00 to 9.00	5.00 to 9.00	O=C(NC1CCN(C(=O)C2CCCO2)CC1)O[C@@H]1CCN(c2cn[nH]c(=O)c2Cl)C1 (stereo partly drawn) [P-0401, (R)-1-(5-chloro-6-oxo-1,6-dihydropyridazin-4-yl)pyrrolidin-3-yl (1-(tetrahydrofuran-2-carbonyl)piperidin-4-yl)carbamate]
5.00 to 9.00	5.00 to 9.00	CC(=O)N1CCC(CNC(=O)O[C@@H]2CCN(c3cn[nH]c(=O)c3Cl)C2)CC1 [P-0241, (R)-1-(5-chloro-6-oxo-1,6-dihydropyridazin-4-yl)pyrrolidin-3-yl ((1-acetylpiperidin-4-yl)methyl)carbamate]
4.00 to 5.00	5.00 to 9.00	CCc1c(N2CC[C@@H](OC(=O)NC3CCC(F)(F)CC3)C2)cn[nH]c1=O [P-0378, (R)-1-(5-ethyl-6-oxo-1,6-dihydropyridazin-4-yl)pyrrolidin-3-yl (4,4-difluorocyclohexyl)carbamate]
5.00 to 9.00	5.00 to 9.00	Cn1ncc(N2CC[C@@H](OC(=O)NC3CCCC3)C2)c(Cl)c1=O [P-0155, (R)-1-(5-chloro-1-methyl-6-oxo-1,6-dihydropyridazin-4-yl)pyrrolidin-3-yl cyclopentylcarbamate]
5.00 to 9.00	5.00 to 9.00	Cc1ccc(NC(=O)N[C@H]2CC[C@H](NC(=O)O[C@@H]3CCN(c4cn[nH]c(=O)c4Cl)C3)CC2)cc1 [P-0321, (R)-1-(5-chloro-6-oxo-1,6-dihydropyridazin-4-yl)pyrrolidin-3-yl ((1r,4R)-4-(3-(p-tolyl)ureido)cyclohexyl) carbamate]
5.00 to 9.00	5.00 to 9.00	O=C(N[C@H]1CC[C@H](NS(=O)(=O)c2ccccc2F)C1)O[C@@H]1CCN(c2cn[nH]c(=O)c2Cl)C1 [P-0365, (R)-1-(5-chloro-6-oxo-1,6-dihydropyridazin-4-yl)pyrrolidin-3-yl ((1S,3S)-3-((2-fluorophenyl)sulfonamido)cyclopentyl)carbamate]
5.00 to 9.00	5.00 to 9.00	O=C(N[C@H]1CC[C@H](NS(=O)(=O)c2cccs2)CC1)O[C@@H]1CCN(c2cn[nH]c(=O)c2Cl)C1 [P-0300, (R)-1-(5-chloro-6-oxo-1,6-dihydropyridazin-4-yl)pyrrolidin-3-yl ((1r,4R)-4-(thiophene-2-sulfonamido)cyclohexyl) carbamate]
5.00 to 9.00	5.00 to 9.00	O=C(N[C@H]1CC[C@H](NS(=O)(=O)c2ccccc2F)CC1)O[C@@H]1CCN(c2cn[nH]c(=O)c2Cl)C1 [P-0176, (R)-1-(5-chloro-6-oxo-1,6-dihydropyridazin-4-yl)pyrrolidin-3-yl ((1r,4R)-4-((2-fluorophenyl)sulfonamido)cyclohexyl)carbamate]
5.00 to 9.00	5.00 to 9.00	O=C(CN1CCOCC1)N[C@H]1CC[C@H](NC(=O)O[C@@H]2CCN(c3cn[nH]c(=O)c3Cl)C2)CC1 [P-0270, (R)-1-(5-chloro-6-oxo-1,6-dihydropyridazin-4-yl)pyrrolidin-3-yl ((1r,4R)-4-(2-morpholinoacetamido)cyclohexyl)carbamate]
5.00 to 9.00	5.00 to 9.00	C=CS(=O)(=O)N[C@H]1CC[C@H](NC(=O)O[C@@H]2CCN(c3cn[nH]c(=O)c3Cl)C2)CC1 [P-0308, (R)-1-(5-chloro-6-oxo-1,6-dihydropyridazin-4-yl)pyrrolidin-3-yl ((1r,4R)-4-(vinylsulfonamido)cyclohexyl) carbamate]
5.00 to 9.00	5.00 to 9.00	O=C(NCC1CCOCC1)O[C@@H]1CCN(c2cn[nH]c(=O)c2Cl)C1 [P-0236, (R)-1-(5-chloro-6-oxo-1,6-dihydropyridazin-4-yl)pyrrolidin-3-yl ((tetrahydro-2H-pyran-4-yl)methyl)carbamate]
5.00 to 9.00	5.00 to 9.00	O=C(N[C@H]1CC[C@H](NS(=O)(=O)c2c(F)cccc2F)CC1)O[C@@H]1CCN(c2cn[nH]c(=O)c2Cl)C1 [P-0297, (R)-1-(5-chloro-6-oxo-1,6-dihydropyridazin-4-yl)pyrrolidin-3-yl ((1r,4R)-4-((2,6-difluorophenyl)sulfonamido)cyclohexyl)carbamate]
5.00 to 9.00	5.00 to 9.00	N#CC1CCC(NC(=O)O[C@@H]2CCN(c3cn[nH]c(=O)c3Cl)C2)CC1 (stereo partly drawn) [P-0114, (R)-1-(5-chloro-6-oxo-1,6-dihydropyridazin-4-yl)pyrrolidin-3-yl (4-cyanocyclohexyl)carbamate]
5.00 to 9.00	5.00 to 9.00	CC1(C)CCCC(NC(=O)O[C@@H]2CCN(c3cn[nH]c(=O)c3Cl)C2)C1 (stereo partly drawn) [P-0278, (R)-1-(5-chloro-6-oxo-1,6-dihydropyridazin-4-yl)pyrrolidin-3-yl (3,3-dimethylcyclohexyl)carbamate]
